Reference: publication PMC9826262, “Discovery of Benzo[d]imidazole‐6‐sulfonamides as Bromodomain and Extra‐Terminal Domain (BET) Inhibitors with Selectivity for the First Bromodomain” (Chemmedchem, 2022)
In brackets after ≈: the same amount, converted by molar mass. Where two headings read alike, the source gives them in different places.

How the values were obtained:
[1] = CYPs and UGTs dual-activity microsomal stability; type: in vitro ADME; conditions: human liver microsomes; alamethicin, NADPH and UDPGA cofactors; 37 °C, 60 min
Procedure: In this study, the CYPs and UGTs “dual‐activity” microsomal stability assay was carried out to follow the loss of the test compounds over time under CYP‐ and UGT‐mediated metabolic pathways. In detail, the compounds were added to human liver microsomes in the presence of alamethicin, NADPH and UDPGA as cofactors.[24] Alamethicin, a pore‐forming peptide, was used to activate UGTs in human liver microsomes. Testosterone was used as positive control while the negative control was prepared by incubation of the compounds without cofactors up to 60 min. The negative control is essential to detect problems such as non‐specific protein binding or heat instability.
Instrumentation and chromatographic conditions. The metabolic stability of investigated compounds was monitored using a Nexera UHPLC system (Shimadzu, Kyoto, Japan) consisting of a CBM‐20A controller, two LC‐30AD pumps, an SPD‐M20A photo diode array detector, a CTO‐20AC column oven and, a SIL‐30AC autosampler. The chromatographic analyses were accomplished on a Kinetex® Evo C18 column, 150×2.1 mm×2.6 μm (Phenomenex®, Bologna, Italy) maintained at 40 °C. The optimal mobile phase consisted of 0.1 % HCOOH/H2O v/v (A) and 0.1 % HCOOH/ACN v/v (B) delivered at constant flow rate of 0.5 mL/min ^−1. Analysis was performed in gradient elution as follows: 0–8.00 min, 5–95 % B; 8.00–10.00 min, isocratic to 95 % B; then five minutes for column re‐equilibration. Data acquisition was set in the range 190–800 nm and chromatograms were monitored at 254 nm.
In vitro drug metabolism using human liver microsomes. 25 μL of 5 mg/mL human […] microsomes (Thermo Fisher Scientific, Bremen, Germany) were pre‐incubated with 0.625 μL of 100 μg/mL alamethicin. Then 2.5 μL of sample (5 mM) with 168 μL of 100 mM phosphate buffer (pH 7.4), 4 μL of 500 mM MgCl2 were added, the mixture was incubated at 37 °C for 5 min. Optimal UGT activity can be achieved by the addition of MgCl2 and alamethicin as pore forming antibiotic. These components allow for the efficient transfer of a glucuronide product and the cofactor uridine 5′‐diphospho‐α‐D‐glucuronic acid (UDPGA) within the microsomal matrix. The reaction has started by adding 50 μL of mix NADPH 20 mM and UDP‐GlcUA 20 mM as cofactors (1 : 1 v/v) and carried out 37 °C for 60 min in a Thermomixer comfort (Eppendorf, Hamburg, Germany). The reaction was stopped by the addition of 200 μL ice‐cold acetonitrile and then samples were centrifuged at 14,000 rpm at 25 °C for 5 min (Eppendorf® microcentrifuge 5424, Hamburg, Germany). The supernatants were collected and injected in UHPLC. The control at 0 min was obtained by addition of ice‐cold acetonitrile immediately after incubation with microsomes. […]

BRD4 BD1 = target: T1, BRD4 BD1 (Homo sapiens, UniProt O60885); conditions: cited from earlier work
T1 construct: The microsyringe was loaded with a solution of BRD4 BD1; His6 (cleaved yes); made in house; host or cells: E. coli BL21(DE3)-R3-pRARE2

in vitro = conditions: PAMPA, pH 7.4
Procedure: Membrane permeability was estimated by the well‐validated parallel artificial membrane permeability assay (PAMPA) technique.[17, 26]
Parallel Artificial Membrane Permeability Assay (PAMPA). Donor solution (0.2 mM) was prepared by diluting 20 mM dimethyl sulfoxide (DMSO) compound stock solution using phosphate buffer (pH 7.4, 0.01 M). Filters were coated with 5 μL of a 1 % (w/v) dodecane solution of L‐α‐phosphatidylcholine. Donor solution (150 μL) was added to each well of the filter plate. To each well of the acceptor plate, 300 μL of solution (5 % DMSO in phosphate buffer) was added. […] The sandwich was incubated for 24 h at room temperature under gentle shaking. After the incubation time, the sandwich plates were separated and 250 μL of the acceptor plate was transferred to a UV quartz microtiter plate and measured by UV spectroscopy, using a Multiskan GO microplate spectrophotometer (Thermo Fisher Scientific) at 250–500 nm at a step of 5 nm. Reference solutions (250 μL) were prepared diluting the sample stock solutions to the same concentration as that with no membrane barrier.
In this equation, VR is the volume of the acceptor compartment (0.3 cm^3), VD is the donor volume (0.15 cm^3), A is the accessible filter area (0.24 cm^2), and t is the incubation time in seconds.

[2] = tested on: BD1 and BD2 of BRD2 and BRD3; conditions: cited from earlier work
BRD4 BD2 = conditions: cited from earlier work
[3] = Nephelometric solubility determination; type: physicochemical; conditions: for solubility: aqueous buffer, kinetic from dmso stock, PBS with 1 % DMSO, tested at 50 and 100 μM, room temperature, read-out: Solubility (highest concentration where no precipitate was detected)
Procedure: Solubility determination. Solubility of the compounds was determined using Nepheloskan Ascent® (Labsystems). The experiments were performed at room temperature in 96‐well plates in a final volume of 300 μL. Each compound was tested in quadruplicate at the concentrations of 50 and 100 μM in PBS with 1 % DMSO. The measurements were performed at 4 different time points (T0, 30 min, 60 min, 90 min) from the preparation of the samples. Data obtained were compared to control (PBS with 1 % DMSO) and the ratio sample/control was determined for each compound. Compounds are considered soluble if the ratio is≤3.

HeLa cells = assay: MTT cell viability assay; type: cell-based, human; conditions: 50 μM, 72 h
Procedure: Cells were incubated with different compound concentrations (50 μM, 5 μM and 0.5 μM) for different times (24, 48 and 72 h) and cellular viability was determined performing an MTT (3‐(4,5‐dimethylthiazol‐2‐yl)‐2,5‐diphenyl‐2H‐tetrazolium bromide) assay.
Cell Viability Assay. HeLa cell line was cultured in DMEM supplemented with 10 % (v/v) fetal bovine serum, 100 U/mL penicillin, 100 μg/mL streptomycin, and 2 mM L‐glutamine at 37 °C in a 5 % CO2 atmosphere. Cell viability was determined using a 3‐(4,5‐dimethylthiazol‐2‐yl)‐2,5‐diphenyltetrazolium bromide (MTT) assay. […] The mitochondrial dependent reduction of MTT to formazan was used to assess cell viability. Live cells reduce yellow MTT to purple formazan. The formazan was solubilized in DMSO, and absorbance was measured at 550 nm and corrected for 620 nm background. Experiments were performed in quadruplicate and all values are expressed as the percentage of the control containing 1 % DMSO.

BRD2(BD2) = target: T2, BRD2(BD2) (Homo sapiens, UniProt P25440); assay: TR-FRET displacement binding assay; conditions: AlexaFluor647 derivative of 1
T2 construct: tested on BD1 and BD2 domains (6×His‐tagged) of each BET protein
T2 sequence (P25440 344-453 limits assumed): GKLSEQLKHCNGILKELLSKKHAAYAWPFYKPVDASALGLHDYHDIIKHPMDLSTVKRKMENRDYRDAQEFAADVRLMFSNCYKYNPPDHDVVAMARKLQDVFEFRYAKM
Procedure: (§1) TR‐FRET assay. […] Compound was diluted in assay buffer (150 mM HEPES, 150 mM NaCl, 5 % glycerol, 1 mM DTT, and 1 mM CHAPS, pH 7.4), starting from a stock solution of 10 mM (100 % DMSO). The highest concentration tested was 100 μM and from this concentration 11 three‐fold dilutions were prepared. […] TR‐FRET ratio was calculated using the following equation: ratio=acceptorfluorescenceat665nm/donorfluorescenceat615nm×1000
(§2) Compound was tested in triplicate and data were analyzed using GraphPad Prism software (version 8.0) using the equation log(inhibitor) vs. normalized response‐variable slope.

BRD3(BD1) = target: T3, BRD3(BD1) (Homo sapiens, UniProt Q15059); assay: TR-FRET displacement binding assay; conditions: AlexaFluor647 derivative of 1
T3 construct: tested on BD1 and BD2 domains (6×His‐tagged) of each BET protein
T3 sequence (Q15059 34-140 limits assumed): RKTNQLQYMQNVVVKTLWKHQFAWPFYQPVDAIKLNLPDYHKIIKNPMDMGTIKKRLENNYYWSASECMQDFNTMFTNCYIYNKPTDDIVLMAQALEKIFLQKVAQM
Procedure: as §1, §2

[4] = tested on: BD1 and BD2 of BET proteins (BRD2, BRD3, BRD4 and BRDT); assay: Protein stability shift assay (ΔTm), BET bromodomains; type: binding; conditions: compound 10 μM; protein 2 μM
Procedure: The compounds were tested at 10 μM fixed dose and the pan‐BET inhibitor 1 was used as a reference compound.[22] The results obtained from this screening supported our design strategy.
Protein stability shift assay. Thermal melting experiments were carried out using an Mx3005p Real Time PCR machine (Stratagene). Proteins were buffered in 10 mM HEPES pH 7.5, 500 mM NaCl and assayed in a 96‐well plate at a final concentration of 2 μM in 20 μL volume. Compounds were added at a final concentration of 10 μM. SYPRO Orange (Molecular Probes) was added as a fluorescence probe at a dilution of 1 : 1000. Excitation and emission filters for the SYPRO‐Orange dye were set to 465 nm and 590 nm, respectively. The temperature was raised with a step of 3 °C per minute from 25 °C to 96 °C and fluorescence readings were taken at each interval. The temperature dependence of the fluorescence during the protein denaturation process was approximated by the equation yT=yF+yU-yF/1+e^ΔuGT/RT
where ΔuG(T) is the difference in unfolding free energy between the folded and unfolded state, R is the gas constant and yF and yU are the fluorescence intensity of the probe in the presence of completely folded and unfolded protein, respectively. The baselines of the denatured and native states were approximated by a linear fit. The observed temperature shifts, ΔTm obs, were recorded as the difference between the transition midpoints of sample and reference wells containing protein without ligand in the same plate and determined by non‐linear least squares fit.

BRD2(BD1) = target: T4, BRD2(BD1) (Homo sapiens, UniProt P25440); assay: TR-FRET displacement binding assay; conditions: AlexaFluor647 derivative of 1
T4 construct: tested on BD1 and BD2 domains (6×His‐tagged) of each BET protein
T4 sequence (P25440 74-180 limits assumed): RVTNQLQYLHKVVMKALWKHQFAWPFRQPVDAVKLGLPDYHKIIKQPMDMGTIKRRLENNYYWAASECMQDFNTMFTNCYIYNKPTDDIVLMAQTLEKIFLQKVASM
Procedure: as §1, §2

BRD3(BD2) = target: T5, BRD3(BD2) (Homo sapiens, UniProt Q15059); assay: TR-FRET displacement binding assay; conditions: AlexaFluor647 derivative of 1
T5 construct: tested on BD1 and BD2 domains (6×His‐tagged) of each BET protein
T5 sequence (Q15059 306-415 limits assumed): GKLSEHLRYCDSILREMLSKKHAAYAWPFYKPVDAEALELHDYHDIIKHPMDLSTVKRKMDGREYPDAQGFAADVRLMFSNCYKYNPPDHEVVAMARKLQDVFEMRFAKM
Procedure: as §1, §2

[5] = set-up: method as in PMID 32193360; conditions: cited from earlier work
MV4‐11 cell line = conditions: read-out: IC50 cell growth MV4‐11; cited from earlier work
HL60 cell line = conditions: read-out: IC50 cell growth HL60; cited from earlier work
THP‐1 cell line = conditions: read-out: IC50 cell growth THP‐1; cited from earlier work
BD1 in all BET proteins = conditions: cited from earlier work
BD1 of BET proteins = conditions: cited from earlier work

## Cc1cc(/N=N/c2ccc(S(=O)(=O)Nc3ccc(C#N)cc3)cc2)cc(C)c1O [7 b, MS611]
[1]
  CYPs and UGTs “dual‐activity” microsomal stability (percentage of the parent compound turnover): 7.5±1.0%
BRD4 BD1
  Ki: 410 nM
In vitro
  Papp at 24 h, 0.2 mM: 1.1 ×10⁻⁶ cm/s
[2]
  Selectivity between BD1 and BD2 of BRD2 and BRD3 (words): almost no selectivity between each BDs domain of BRD3 and BRD2
[2]; listed as MS611
  Selectivity between BD1 and BD2 of BRD2 and BRD3 (words): almost no difference in binding affinity between BD1 and BD2 of BRD2 and BRD3
BRD4 BD2
  Ki: 41300 nM
[3]
  solubility: 50 µM (≈ 20.3 µg/mL)

## Cc1cc(-c2nc3ccc(S(=O)(=O)Nc4ccccn4)cc3[nH]2)cc(C)c1O [9 a, 2‐(4‐hydroxy‐3,5‐dimethylphenyl)‐N‐(pyridin‐2‐yl)‐1H‐benzo[d]imidazole‐6‐sulfonamide]
[1]
  CYPs and UGTs “dual‐activity” microsomal stability (percentage of the parent compound turnover): 1.0±0.3%
HeLa cells
  Decrease of cell viability: around 30%
BRD2(BD2)
  IC50: 22000 ± 8000 nM
BRD3(BD1)
  IC50: 180 ± 20 nM
In vitro
  Papp at 24 h, 0.2 mM: 0.107 ×10⁻⁶ cm/s
[4]
  ΔTm screening against BET bromodomains: increase in the melting temperature of all BET proteins
BRD2(BD1)
  IC50: 126 ± 19 nM
[3]; 100 μM, aqueous solution with 1 % DMSO
  Solubility at 100 μM: still soluble
[3]
  solubility: 100 µM (≈ 39.4 µg/mL)
BRD3(BD2)
  IC50: 7000 ± 3000 nM

## COCc1nc2cnc3cc(-c4c(C)noc4C)c(OC[C@H]4CCNC4)cc3c2n1[C@H](C)c1ccccc1 [Compound 5, GSK778]
[5]
  Pharmacokinetic properties: poor pharmacokinetic properties

## Cc1cc2c(-c3ccco3)cnc(N[C@@H]3CCN(C)C[C@H]3C(=O)NC3CCCCC3)c2[nH]c1=O [Compound 6, GSK789]
MV4‐11 cell line
  IC50: 25 nM
HL60 cell line
  IC50: 390 nM
THP‐1 cell line
  IC50: 258 nM
BD1 in all BET proteins
  IC50: 30 nM
  Selectivity for BD1 over BD2 in all BET proteins: 1000 fold

## CC(=O)NCCCCn1c2c(c3ccccc31)C(=O)NCC2 [Olinone]
BD1 of BET proteins
  Kd: 3400 nM
